Assay results reported in patent publication US20260199234A1, “PHARMACEUTICAL COMPOSITIONS OF POLYMERIC MICELLAR CINACALCET, AND METHODS OF PREPARATION AND USE THEREOF” (HANGZHOU SHIXI PHARMACEUTICAL TECHNOLOGY CO., LTD., priority 2023, published 2026).

Experiments:
[1] = Unbound cinacalcet fraction in plasma (30 kD ultrafiltration, RP-HPLC); assay type: in vitro ADME, rabbit; conditions: Recon conc. 1 mg/ml
Protocol: The unbound cinacalcet fractions in plasma were determined. The cinacalcet buffer solution and cinacalcet polymer micelles were mixed with rabbit plasma at 1:4 ratio, incubated at 37° C., and filtered through 30 kD ultrafiltration membrane. The filtrate and unfiltered plasma were mixed with acetonitrile at a ratio of 1:4, and the cinacalcet concentrations were determined by an RP-HPLC. Table 10 presents unbound (filtered) and total (unfiltered) cinacalcet concentrations, and calculated % unbound fractions (unbound concentration divided by total concentration).

[2] = oral, fasted subjects; cited from earlier work

Compound: C[C@@H](NCCCc1cccc(C(F)(F)F)c1)c1cccc2ccccc12 [cinacalcet]
- Total conc. ([1]; 1:4 with rabbit plasma, 37° C.): 0.84 ± 0.01 mg/mL
- Unbound concentration ([1]; 5 min): 92 ± 16 µg/mL
- fraction unbound at 5 min, 0.2 mg/mL ([1]; rabbit, rabbit plasma, 5 min): 0.11
- Absolute bioavailability [2]: 20-25%
